The subject of data set [1] is E. coli ATCC 11775. As to the kind of experiment: microbe, parasite or virus in culture. Further details: MIC, E. coli ATCC 11775 (-): unit not given beside the values. As to conditions: broth microdilution. The protocol:
(§1) Briefly, 10^5 bacterial cells were incubated with serially diluted EPs (0–64 μmol l^−1) at 37 °C. Bacterial growth was assessed by measuring the optical density at 600 nm in a microplate reader at 1 day post-treatment. […] Secondary structure fractions were calculated using the BeStSel server. fH and fβ stand for helical and β fractions, respectively.
(Broth dilution looks for growth in wells or tubes with falling amounts of substance.)

Data set [2] has as its system E. faecium ATCC 700221 (VRE). In words: microbe, parasite or virus in culture. The protocol:
as §1

In data set [3] the test system is S. aureus ATCC 12600. In words: microbe, parasite or virus in culture. The protocol: as §1
The test system of data set [4] is A. baumannii ATCC 19606. In words: microbe, parasite or virus in culture. The protocol:
as §1

The test system of data set [5] is K. pneumoniae ATCC 13883. As to the kind of experiment: microbe, parasite or virus in culture. The protocol: as §1
In data set [6] the test system is P. aeruginosa PA14. As to the kind of experiment: microbe, parasite or virus in culture. Further details: MIC, P. aeruginosa PA14 (-): unit not given beside the values. The protocol:
as §1

Data set [7] concerns S. aureus ATCC BAA-1556 (MRSA). As to the kind of experiment: microbe, parasite or virus in culture. Further details: MIC, S. aureus ATCC BAA-1556 - MRSA (+): unit not given beside the values. The protocol:
as §1

Data set [8] concerns A. baumannii. In words: Cytoplasmic membrane fluidity, Laurdan generalized polarization. As to conditions: peptides at 100× MIC stock diluted 1:100, 30 min, λex 350, λem 440/490 nm; mean of 3 independent experiments. The format is cell-based, Acinetobacter baumannii. From the text:
Fig. 4 Mechanism of action, haemolytic activity and cytotoxicity of antibiotics from the archaeome. […] The fluorescence probe NPN was used to assess membrane permeabilization (a) induced by the tested EPs (Extended Data Fig. 6a). The fluorescence probe DiSC3-5 was used to evaluate membrane depolarization (b) caused by archaeasins (Extended Data Fig. 6b). The shown values represent the relative fluorescence of both probes, with nonlinear fitting compared with the baseline of the untreated control (buffer + bacteria + fluorescence dye) and benchmarked against the antibiotics polymyxin B and levofloxacin. c, Laurdan generalized polarization over time in A. baumannii treated with archaeasins. […] Higher generalized polarization values indicate increased membrane rigidity, whereas lower values reflect increased membrane fluidity. Benzyl alcohol was used as a positive control for membrane fluidization, and untreated cells served as a negative control. […] All experiments were performed in three independent replicates (Extended Data Fig. 7). The protein and peptide structures depicted in panels a and b were created with PyMOL Molecular Graphics System, v.3.0 (Schrödinger).

The test system of data set [9] is human red blood cells (RBCs). The protocol: To assess the potential toxicity of the synthesized archaeasins, we exposed them to human red blood cells (RBCs), a common method for evaluating the toxicity of antimicrobial agents[20],[26],[27].
To evaluate the release of haemoglobin from human erythrocytes upon treatment of each of the EPs, human RBCs were obtained from Zen-Bio (donor, blood type A^−) obtained from heparin anti-coagulated blood. RBCs were washed with PBS (pH 7.4) 4× by centrifugation at 800g for 10 min. Aliquots of 200-fold-diluted cells (75 μl) were mixed with peptide solution (0.78–100 μmol l^−1; 75 μl), and the mixture was incubated for 4 h at room temperature. After incubation, the plate was centrifuged at 1,300g for 10 min to precipitate cells and debris, and 100 μl of supernatant from each well was transferred to a new 96-well plate for absorbance reading (405 nm) using an automatic plate reader. The percentage of haemolysis was defined by comparison with negative control (samples containing PBS) and positive control (samples containing 1% (v/v) SDS in PBS solution). Haemolysis(%)=100×(absorbance405nmpeptide−absorbance405nmnegativecontrol)/(absorbance405nmpositivecontrol−absorbance405nmnegativecontrol)
All assays were performed in three independent biological replicates as indicated in each figure legend and in the Methods. […] In the skin abscess and thigh infection mouse models, we used six mice per group following established protocols approved by the University Laboratory of Animal Resources of the University of Pennsylvania.
Extended Data Fig. 7 Hemolytic activity of archaeasins. Hemolytic activity was assessed by exposing red blood cells to archaeasins, with lysis determined by absorbance readings after 4 h. The peptides were added to plates and subjected to a two-fold dilution series (ranging from 64 to 4 μmol L^−1) before exposure to the red blood cells. Source data

The subject of data set [10] is P. aeruginosa PAO1. As to the kind of experiment: microbe, parasite or virus in culture. Further details: MIC, P. aeruginosa PAO1 (-): unit not given beside the values. The protocol: as §1
Data set [11] relates to E. coli AIC222 (colistin-resistant, CRE). In words: microbe, parasite or virus in culture. Further details: MIC, E. coli AIC222 - CRE (-): unit not given beside the values. As to conditions: broth microdilution. The protocol:
as §1

The test system of data set [12] is E. coli AIC221. As to the kind of experiment: microbe, parasite or virus in culture. Further details: MIC, E. coli AIC221 (-): unit not given beside the values. The protocol:
as §1

For data set [13], the system named is A. baumannii ATCC 19606. As to the kind of experiment: Neutropenic deep thigh infection mouse model. The format is in vivo. As to conditions: neutropenic female CD-1 mice, n = 6, single intraperitoneal dose 2 h after infection. The protocol: The limit of detection (LOD) for the CFU quantification is log10CFU = 2. Statistical significance in panels b and d was determined using one-way analysis of variance followed by Dunnett’s test; P values are shown in the graphs. In the violin, the centre line represents […], the box limits the 1st and 3rd quartiles, and the whiskers (minimum and maximum) represent 1.5× the interquartile range. The solid line inside each box represents […] value obtained for each group. Panels a and c created with BioRender.com. Source data
Next, we assessed the efficacy of the same lead archaeasins (archaeasin-2, archaeasin-17 and archaeasin-73) in a murine deep thigh infection model (Fig. 5c), which is widely used to assess the antibiotic potential of compounds. Mice were administered 2 rounds of cyclophosphamide treatment for immunosuppression before the intramuscular infection with 1 × 10^5 cells in 100 μl of A. baumannii. A single dose of each archaeasin (at their MIC) was delivered intraperitoneally (Fig. 5c). […] Four days post-treatment, the bacterial counts remained stable for all peptide treatment conditions and the treatments with polymyxin B and levofloxacin, while the untreated control increased by two orders of magnitude. […]

Setting [14] is: Fig 2a source data, Gram-negative, broth microdilution.
Where [15] appears, read: broth microdilution, LB, 1–64 μmol l^−1 two-fold dilutions, 24 h, 37 °C, OD600, mode of three independent replicates.

Values after ≈ are worked out from the molar mass of the structure shown. Bridge positions count the residues as written; N and C are the ends. Square brackets hold non-standard residues; d marks the D form. Peptide text beside a SMILES is read from it. * marks the point of attachment. X1 = CC[C@H](C)CCCCC(=O)*; Dab = NCC[C@H](N)C(=O)O

`CC[C@H](C)[C@H](NC(=O)[C@H](CC(C)C)NC(=O)[C@H](CC(C)C)NC(=O)[C@H](CCCNC(=N)N)NC(=O)[C@H](C)NC(=O)[C@H](CC(C)C)NC(=O)[C@H](Cc1ccc(O)cc1)NC(=O)CNC(=O)[C@H](C)NC(=O)CN)C(=O)N[C@@H](CCCNC(=N)N)C(=O)N[C@@H](CCCNC(=N)N)C(=O)N[C@@H](CO)C(=O)N[C@@H](CC(C)C)C(=O)N[C@@H](CCCNC(=N)N)C(=O)N[C@@H](CC(C)C)C(=O)N[C@@H](CC(C)C)C(=O)N[C@@H](CCCNC(=N)N)C(=O)N[C@@H](CCCNC(=N)N)C(=O)N[C@@H](CC(C)C)C(=O)O` [Archaeasin-78] (H-GAGYLARLLIRRSLRLLRRL-OH; N-terminus and C-terminus assumed): the “MIC, E. coli ATCC 11775 (-)” value in [1] (Fig 2a source data, Gram-negative) stood at 32. For the same molecule, the “MIC E. faecium ATCC 700221 – VRE (+)” value in data set [2] (ATCC 700221, 24 h) is 1 µM (≈ 2.37 µg/mL). In data set [2] (Fig 2a source data, Gram-positive, VRE, broth microdilution), the “MIC, E. faecium ATCC 700221 - VRE (+)” value is given as 1. Further, the “MIC S. aureus ATCC 12600 (+)” value in data set [3] (ATCC 12600, 24 h) came out at 8 µmol/L (≈ 18.9 µg/mL). The “MIC S. aureus ATCC 12600 (+)” value in data set [3] (Fig 2a source data, Gram-positive, broth microdilution) was found to be 8. Moreover, in data set [4], the “MIC, A. baumannii ATCC 19606 (-)” value turned out to be 1. Besides, the “MIC K. pneumoniae ATCC 13883 (−)” value in data set [5] (ATCC 13883, 24 h) stood at 4 µM (≈ 9.47 µg/mL). Also, in data set [5] (setting [14]), the “MIC, K. pneumoniae ATCC 13883 (-)” value came to 4. In addition, the “MIC, P. aeruginosa PA14 (-)” value in data set [6] (setting [14]) is given as 16. The “MIC P. aeruginosa PA14 (−)” value in [6] (PA14, 24 h) was found to be 16 µM (≈ 37.9 µg/mL). In addition, the “MIC S. aureus ATCC BAA-1556 – MRSA (+)” value in [7] (ATCC BAA-1556, 24 h) was determined as 8 µM (≈ 18.9 µg/mL). Besides, the “MIC, S. aureus ATCC BAA-1556 - MRSA (+)” value in data set [7] (Fig 2a source data, Gram-positive, MRSA, broth microdilution) is 8. Also, the “Laurdan generalized polarization change of cytoplasmic membrane” value in data set [8] was “pronounced increases in generalized polarization values over time”. Also, in data set [9], the haemolytic effects entry is recorded as “did show haemolytic effects”. Besides, in data set [9] (red cells of human, 4 h), the “HC50 (source data of Fig. 4)” value was 5.537 µmol/L and the “HC50, peptide concentration leading to 50% RBC lysis” value was found to be 6 µmol/L. In data set [10] (setting [14]), the “MIC, P. aeruginosa PAO1 (-)” value is given as 8. In data set [10] (PAO1, 24 h), the “MIC P. aeruginosa PAO1 (−)” value is 8 µM (≈ 18.9 µg/mL). Besides, the “MIC, E. coli AIC222 - CRE (-)” value in data set [11] (Fig 2a source data, Gram-negative, CRE) came out at 4. In [12] (AIC221, 24 h), the “MIC E. coli AIC221 (−)” value amounted to 1 µM (≈ 2.37 µg/mL). Further, in [12] (setting [14]), the “MIC, E. coli AIC221 (-)” value came out at 1.

`CC[C@H](C)CCCCC(=O)N[C@@H](CCN)C(=O)N[C@H](C(=O)N[C@@H](CCN)C(=O)N[C@H]1CCNC(=O)[C@H]([C@@H](C)O)NC(=O)[C@H](CCN)NC(=O)[C@H](CCN)NC(=O)[C@H](CC(C)C)NC(=O)[C@@H](Cc2ccccc2)NC(=O)[C@H](CCN)NC1=O)[C@@H](C)O` [Polymyxin B, reference compound] (X1-[Dab]T[Dab][Dab][Dab][dF]L[Dab][Dab]T; lactam 4-C (inferred); N-terminus assumed): the “MIC E. coli ATCC 11775 (−)” value in [1] (LB, 1–64 μmol l^−1 two-fold dilutions, 24 h, 37 °C, OD600, mode of three independent replicates) was determined as 0.25 µM (≈ 0.301 µg/mL). The “MIC A. baumannii ATCC 19606 (−)” value in data set [4] (setting [15]) came to 0.5 µM (≈ 0.602 µg/mL). Also, the “MIC K. pneumoniae ATCC 13883 (−)” value in [5] (setting [15]) amounted to 8 µM (≈ 9.63 µg/mL). The “MIC P. aeruginosa PA14 (−)” value in data set [6] (setting [15]) turned out to be 8 µM (≈ 9.63 µg/mL). Also, the “MIC P. aeruginosa PAO1 (−)” value in data set [10] (setting [15]) is 4 µM (≈ 4.81 µg/mL). In [13], the “reduction of bacterial load, deep thigh infection, four days post-treatment” value is given as “three”. Also, in data set [11] (colistin-resistant strain, LB, 1–64 μmol l^−1 two-fold dilutions, 24 h, 37 °C, OD600, mode of three independent replicates), the “MIC E. coli AIC222 – CRE (−)” value is 8 µM (≈ 9.63 µg/mL). In data set [12] (setting [15]), the “MIC E. coli AIC221 (−)” value turned out to be 0.25 µM (≈ 0.301 µg/mL).

Values taken from publication PMC12408343, “Deep learning reveals antibiotics in the archaeal proteome” (Nature Microbiology, 2025).
